# Source: patent US9657059B2, “Immune system modulators” (Canimguide Therapeutics AB, priority 2013, dated 2017)
# Assays:
# [1] = test system: Artificial Cell Surface (ACS): biotinylated cell surface proteins of PBMCs; test: Adsorption of enzyme-fragmented dHSA peptides by artificial cell surface (ACS) column, MALDI-TOF; assay type: binding, human
# Method: An artificial cell surface (ACS) was prepared by selectively biotinylating cell surface structures of PBMCs and after lysing the cells binding the biotinylated proteins to streptavidin columns (see Example 17 for further description of the ACS). The mixture of peptides obtained after trypsination was adsorbed by ACS and the binding peptides were identified by comparing adsorbed and unabsorbed peptide solutions using the MALDI TOF ms technique. Based on their degree of binding and their spatial relation to previously identified immunoregulatory structures, four new peptides were selected to be synthesized and investigated for their immunoregulatory activity, primarily the effect on the proliferative response to IL-2.
# First, biotinylated cell surface proteins were prepared. Buffy coats generated from 450 ml blood each were collected from 4 healthy donors. Erythrocytes were removed by sedimentation on 2% dextran T500 solution (Amersham Pharmacia Biotech AB, Uppsala Sweden) in 0.9% NaCl. Mononuclear cells (PBMC) were then isolated by Ficoll-Paque Plus (GE Healthcare BioscienceAB Sweden) density gradient centrifugation. The PBMCs were then suspended in phosphate buffered saline (PBS) containing Ca and Mg (GIBCO) at a concentration of 10×10^6/ml. EZ Link Sulfo-NHS-biotin (Pierce USA) was added at a final concentration of 0.2 mg/ml and the mixture incubated on a shaker at room temperature for 10 min. Excess biotin was then removed by washing the PBMC in PBS. Biotinylated PBMC were then lysed by adding 1.0 ml ice-cold lysing buffer (50 mM Tris-HCL, pH 7.5, with 0.15 MNaCl, 5 mM MgCl2 containing 100 mM Octyl glucoside and 1 mM Phenylmethylsulfonyl fluoride) per 2×10^7 pelleted cells with gentle shaking, then incubated for 30 min. on ice. Debris was removed by centrifugation at 5000×g at 4° C. for 10 min and the supernatants were collected and pooled from all four donors. The lysate was then stored at −70° C. in polypropylene plastic tubes.
# This amount of lysate corresponds to 36×10^7 mononuclear cells. It was added to a 1 ml Hitrap Streptavidin HP affinity column (Amersham Biosciences). To block possible remaining free biotin, 5 ml of 0.1 M glycine (Sigma) was added to the column. Unsaturated streptavidin on the column was then reacted with 150 ug biotin (Sigma) in binding buffer. The column was carefully washed with PBS and stored in PBS with 0.1% NaN3 at 4° C. until use.
# 27 ml biotinylated cell lysate in binding buffer (corresponding to 54×10^7 mononuclear cells) was added to 1.5 ml washed Streptavidin Sepharose HP (Amersham Biosciences). To block possible remaining free biotin, 25 ml of 0.1 M glycine (Sigma) was added to the Streptavidin Sepharose. Unsaturated streptavidin was then reacted with 225 ug biotin (Sigma) in binding buffer. The Streptavidin Sepharose was carefully washed in PBS. One ml of the biotinylated cell lysate coupled Streptavidin Sepharose was then packed in an empty column (Tricorn Empty High Performance Column, Amersham Bioscience) and washed with phosphate buffered saline (PBS) containing Ca^2+ and Mg^2+ (GIBCO).
# Digestion with trypsin or ASP-N was performed as follows. Freeze dried dHSA (0.5 mg) was reconstituted in 25 mM NH4HCO3, pH 8, containing […] sequencing grade modified trypsin (Promega Corporation, WI) or […] Endoproteinase ASP-N(Sigma) and incubated at 37° C. overnight. To remove unfragmented albumin and enzyme, the sample was ultra filtered through an Amicon Ultra 4 (mw cut-off of 5000) or a Centriplus (mw cut-off 10000) centrifugal filter (Millipore AB, Solna, Sweden). The filtrate, containing fragmented dHSA without enzymes, was collected and diluted with PBS with Ca and Mg (GIBCO).
# dHSA was trypsinated, and the mixture of peptides obtained after trypsination was adsorbed by ACS. Two ml of enzyme-fragmented dHSA in PBS, corresponding to a total of 0.2 mg protein, was passaged over the ACS column. […]
# [2] = test system: immune cells; test: Binding of albumin fragments to immune cells on the Artificial Cell Surface column (ACS), MALDI-TOF; design: species or system human
# Method: The existence of albumin sequences having neo-structures that bind to immune cells was identified using a human ex vivo model based on affinity chromatography over an “Artificial Cell Surface Column” (ACS). The effect of different albumin fragments on IL-2 induced proliferation of human immune cells (PBMCs) was analyzed in the ACS system (see Example 9). Briefly, PBMCs were cultured for seven days in the presence of IL-2 and the various synthetically prepared albumin fragments. Proliferation was measured as incorporation of ^3H thymidine during the final 18 hours.
# Some of these fragments can have immunomodulatory activity similar to P3028, can bind to immune cells similar to P3028, and/or can bind to immunomodulatory antibodies that recognized P3028. […] Table 1 provides a listing of trypsin-generated fragments of albumin, which bind to immune cells in the ACS system, as detected by MALDI-TOF analysis.
# […] Again, the immune cell binding peptides were identified by comparing adsorbed and unadsorbed peptide solutions using the MALDI TOF technique.
# [3] = trypsin-generated albumin fragments
# [4] = trypsin-generated albumin fragments, MALDI-TOF
# [5] = Asp-N-generated albumin fragments
# [6] = Asp-N-generated fragments of denatured human serum albumin, MALDI TOF
Substance,"Percent Absorbed [1, 3]","Percent Absorbed [2, 4]","Percent Absorbed [1, 5]","Percent Absorbed [2, 6]"
194 (KYLYEIAR; listed as Homo sapiens) [compound 194],71%,71%,,
195 (KVPQVSTPTLVEVSR; listed as Homo sapiens) [compound 195],64%,64%,,
196 (VFDEFKPLVEEPQNLIK; listed as Homo sapiens) [compound 196],60%,60%,,
197 (VPQVSTPTLVEVSR; listed as Homo sapiens) [compound 197],59%,59%,,
198 (RPCFSALEVDETYVPK; listed as Homo sapiens) [compound 198],42%,42%,,
199 (FQNALLVR; listed as Homo sapiens) [compound 199],41%,41%,,
200 (SLHTLFGDK; listed as Homo sapiens) [compound 200],36%,36%,,
201 (LKECCEKPLLEK; listed as Homo sapiens) [compound 201],36%,36%,,
202 (LCTVATLR; listed as Homo sapiens) [compound 202],35%,35%,,
203 (YLYEIAR; listed as Homo sapiens) [compound 203],34%,34%,,
204 (CCAAADPHECYAK; listed as Homo sapiens) [compound 204],32%,32%,,
205 (AAFTECCQAADK; listed as Homo sapiens) [compound 205],29%,29%,,
206 (CCTESLVNR; listed as Homo sapiens) [compound 206],26%,26%,,
207 (QEPERNECFLQHK; listed as Homo sapiens) [compound 207],25%,25%,,
208 (AVMDDFAAFVEK; listed as Homo sapiens) [compound 208],23%,23%,,
209 (NECFLQHK; listed as Homo sapiens) [compound 209],77%,22%,,
210 (QNCELFEQLGEYK; listed as Homo sapiens) [compound 210],20%,20%,,
211 (QEPERNECFLQHK; listed as Homo sapiens) [compound 211],18%,18%,,
212 (VHTECCHGDLLECADDR; listed as Homo sapiens) [compound 212],13%,13%,,

Substance,"Percent Absorbed [1, 3]","Percent Absorbed [2, 4]","Percent Absorbed [1, 5]","Percent Absorbed [2, 6]"
213 (FKDLGEENFK; listed as Homo sapiens) [compound 213],8%,8%,,
214 (YICENQDSISSK; listed as Homo sapiens) [compound 214],3%,3%,,
215 (LDELRDEGK; listed as Homo sapiens) [compound 215],2%,2%,,
216 (DDNPNLPR; listed as Homo sapiens) [compound 216],1%,1%,,
217 (DHVKLVNEVTEFAKTCVA; listed as Homo sapiens) [compound 217],,,100%,100%
218 (DDKETCFAEEGKKLVAASQAALGL; listed as Homo sapiens) [compound 218],,,100%,100%
219 (DRVTKCCTESLVNRRPCFSALEV; listed as Homo sapiens) [compound 219],,,87%,87%
220 (DETYVPKEFNAETFTHA; listed as Homo sapiens) [compound 220],,,86%,86%
221 (DSISSKLKECCEKPLLEKSHCIAEVEN; listed as Homo sapiens) [compound 221],,,65%,65%
222 (DKLCTVATLRETYGEM; listed as Homo sapiens) [compound 222],,,65%,65%
223 (YSVVLLLRLAKTYETTLEKCCAAADPHECYAKVF; listed as Homo sapiens) [compound 223],,,100%,100%
224 (KLCTVATLRETYGEMADCCAKQEPERNECFLQHK; listed as Homo sapiens) [compound 224],,,100%,100%
225 (ICTLSEKERQIKKQTALVELVKHKPKATKEQLKAVM; listed as Homo sapiens) [compound 225],,,100%,100%
226 (LAKYICENQDSISSKLKECCEKPLLEKHCIAEVEN; listed as Homo sapiens) [compound 226],,,100%,100%
227 (VFLGMFLYEYARRHPDYSVVLLLRLAKTYETTLEKCCAAA; listed as Homo sapiens) [compound 227],,,100%,100%
228 (LGEENFKALVLIAFAQYLQQCPFEDHVKLVNEVTEFAKTCVA; listed as Homo sapiens) [compound 228],,,100%,100%
229 (RVTKCCTESLVNRRPCFSALEVDETYVPKEFNAETFTFHA; listed as Homo sapiens) [compound 229],,,100%,100%
230 (YLSVVLNQLCVLHEKTPVSDRVTKCCCTESLVNRRPFSALEV; listed as Homo sapiens) [compound 230],,,37%,37%
